This series can be described thus: method code SF-AS, from DOI: 10.2175/106143002x139965, PMID: 12150246.

Consider `Clc1cccc(I)c1Cl`, for which the logP (in general, a log measure of how a compound divides between an organic and an aqueous phase) was 4.93.

Consider `Nc1cc([N+](=O)[O-])ccc1Cl`, for which the log partition coefficient (logP) amounted to 2.2.

The compound `Clc1ccc(I)cc1` had a logP of 4.12.

`O=[N+]([O-])c1cc(Cl)ccc1O`: the lipophilicity (logP) is 2.48.

Compound `Nc1ccc(Cl)c(Cl)c1` displayed a logP of 2.55.

Compound `O=[N+]([O-])c1ccc(Cl)c([N+](=O)[O-])c1` registered a logP of 2.18.

In the case of `Fc1c(Cl)cccc1Cl`, the log partition coefficient (logP) was 3.38.

On to `Clc1cccc(Br)c1Cl`, for which the logP worked out at 4.61.

In turn, `Nc1c(Cl)cc([N+](=O)[O-])cc1Cl` came in with a lipophilicity (logP) of 2.84.

As for `Clc1cccc(Cl)c1Br`, the logP worked out at 4.17.

As for `Nc1ccc(F)cc1Cl`, the logP was found to be 2.04.

Compound `Nc1ccc([N+](=O)[O-])cc1Cl` registered a logP of 2.14.

The compound `Fc1ccc(Cl)cc1Cl` returned a logP of 3.38.

Regarding `Nc1ccc(Cl)cc1[N+](=O)[O-]`, the logP was 2.56.

Turning to `N#Cc1ccc(Cl)cc1`, the logP was determined as 2.24.

The values are drawn from the SangsterLogP compilation.
